pIC50: −log10 of the molar value.
Key:
cancer cell lines = settings: cytotoxicity SAR; cited from earlier work
[1] = system: NCI H-460 human lung tumor cells; experiment: Cytotoxicity in NCI H-460 human lung tumor cells, MTT reduction; type: cell-based
Experimental: Cytotoxicity was measured in NCI H-460 human lung tumor cells with cell viability being determined by MTT reduction.^[23] Cells were seeded in 96-well plates at 6000 cells/well in 180 μL of medium. After 24 h, the test chemicals were dissolved in DMSO and diluted into medium without fetal bovine serum and then added at […]. DMSO was less than 0.5% of the final concentration. After 48 h, the medium was removed and cell viability determined.

Molecule	loss of activity compared to apratoxin A (cancer cell lines)	activity compared to apratoxin A (cancer cell lines)	other results
CC[C@H](C)[C@@H]1NC(=O)[C@H](C)N(C)C(=O)[C@H](Cc2ccc(OC)cc2)NC(=O)/C(C)=C/[C@H]2CSC(=N2)[C@@H](C)[C@@H](O)C[C@H](C)C[C@@H](C(C)(C)C)OC(=O)[C@@H]2CCCN2C1=O [apratoxin B]	30 to 40 fold		
CC[C@H](C)[C@H]1C(=O)N2CCC[C@H]2C(=O)O[C@H](C(C)C)C[C@@H](C)C[C@H](O)[C@H](C)C2=N[C@@H](/C=C(\C)C(=O)N[C@@H](Cc3ccc(OC)cc3)C(=O)N(C)[C@@H](C)C(=O)N1C)CS2 [apratoxin C]	2 fold		
CC[C@H](C)[C@H]1C(=O)N2CCC[C@H]2C(=O)O[C@H]([C@@H](C)CC(C)(C)C)C[C@@H](C)C[C@H](O)[C@H](C)C2=N[C@@H](/C=C(\C)C(=O)N[C@@H](Cc3ccc(OC)cc3)C(=O)N(C)[C@@H](C)C(=O)N1C)CS2 [apratoxin D]		roughly equivalent activity	
COc1ccc(C[C@@H]2NC(=O)/C(C)=C/C3CSC(=N3)[C@@H](C)[C@@H](O)C[C@H](C)C[C@@H](C(C)(C)C)OC(=O)[C@H](C)N(C)C(=O)[C@H](C(C)C)N(C)C(=O)[C@H](C)N(C)C2=O)cc1 (stereo partly shown) [apratoxin G]			pIC50 ([1]; H-460 cancer cells, MTT, 48 h): 7.85; reduction in activity compared to apratoxin F ([1]; N-methyl isoleucine exchanged for N-methyl valine): 7 fold
(E)-34,35-dehydro-apratoxin A	72-230 fold		
apratoxin E		only a modest loss of activity	
